This note sets out measurements from publication PMC12032302, “A20 attenuates oxidized self-DNA-mediated inflammation in acute kidney injury” (Signal Transduction and Targeted Therapy, 2025).

“Also recorded” adds a separate entry of the source. Residues, ends and D or L forms follow the SMILES beside them.

The target in test [1] is T1, HA-Tri-MUT-NEK7 (Mus musculus, UniProt Q9ES74, K130A/K140A/L132R).
T1 construct: 3×HA; made in house; host or cells: HEK293T
Put plainly: BLI analysis of NEK7 and P-II, HA-Tri-MUT-NEK7. In kind it is binding. To be noted: K130, L132 and K140 mutated, Fig. 7d. The text has this: For BLI analysis, 3×HA-WT-NEK7 or 3×HA-Tri-MUT-NEK7 plasmids were transfected into HEK293T cells. Post-transfection, proteins were purified with HA antibody via coimmunoprecipitation and then eluted with 0.1 M glycine, Ph2.0. Then, samples were neutralized with 3 M NaOH and subjected to BLI analysis.
(§1) Mouse HA-NEK7, FlAG-A20, and NLRP3 cDNA were amplified by employing standard PCR techniques from a mouse cDNA library. Subsequently, diverse cDNAs were inserted into mammalian expression vectors pcDNA3.1(+), pRK5, or pCMV6 with 3×Flag or 3×HA tags. For transient transfections, Lipofectamine 3000 was utilized according to the manufacturer’s instructions.
(§2) Bio-Layer Interferometry (BLI) analysis
(§3) The peptide (Bootech BioScience &Technology) was immobilized separately on Octet® AR2G Biosensors (Sartorius, Lot#2308017311) at a concentration of 400 μg/ml for 500 s. Association and dissociation curves were obtained through the addition of a dilution series of recombinant human NEK7 protein (SinoBiological, CAT#11534-H20B) (39.0625 to 1250 nM) for 120 s followed by dissociation for 120 s. Interference patterns for association or dissociation were measured in real-time to generate a response profile on the Octet® System Octet 96 Red instrument (Sartorius). A 1:1 binding model was used to evaluate the Kinetic parameter.

Test [2] concerns recombinant human NEK7 protein. Put plainly: BLI analysis of recombinant human NEK7 and P-II. To be noted: Supplementary Fig. 4e, peptide immobilized on AR2G biosensors 400 μg/ml, recombinant human NEK7 39.0625 to 1250 nM, 1:1 binding model. As for the experimental part: as §2, §3
Test [3] has as its system HA-NEK7 Tri-MUT (K130, L132 and K140). Put plainly: biotin-P-II immunoprecipitation of HA-NEK7 Tri-MUT. Format: binding, mouse. To be noted: co-IP with biotin-labeled P-II, HEK293T lysates, overnight 4 °C, immunoblot; Fig. 7c. As for the experimental part: For biotin mediated immunoprecipitation, plasmids of HA-NEK7 (WT, K130A, L132R, K140A and Tri-MUT) were transfected into HEK293T cells for 2 days. Then, cells were lysed in MLB with inhibitor cocktail for 10 min at 4 °C. Cell lysates were collected and centrifuged at 12,000 rpm for 15 min at 4 °C and the supernatant was incubated with biotin conjunction peptide overnight at 4 °C. On the next day, streptavidin magnetic beads(Invitrogen, Lot#91221939) were added and incubated for 1 h. The immunocoprecipitated protein was then subjected to washing, heating, and western blot analysis.
as §1
A general note: Immunoblotting shows a protein as a band on a membrane.

The test system of test [4] is BMDMs. Put plainly: ox-dsDNA-induced pyroptosis in BMDMs (GSDMD cleavage, IL-1β, IL-18, LDH release). Format: cell-based, mouse. To be noted: ox-dsDNA90, 12 h pretreated P-II (0, 5, 10, 20 μM), n = 3, Supplementary Fig. 4f-i. On the procedure: Primary bone marrow-derived macrophages (BMDMs) were isolated from 6- to 8-week-old C57BL/6J male mice. The mice were sacrificed and soaked in 75% alcohol for 1–2 min. The femurs and tibias were removed and immersed in PBS containing 500 U/mL penicillin and […] streptomycin for 3 min. The marrow cavities were repeatedly rinsed with DMEM using a sterile 1 mL syringe. The cell suspension was collected and centrifuged at 300 × g for 10 min, and the supernatant was discarded. The cell pellet was resuspended in 5 mL red cell lysis buffer (Bio Sharp, Cat#BL503A) on ice for 5 min, followed by centrifugation, and the supernatant was removed. The cells were then resuspended in DMEM complete culture medium supplemented with 10% FBS and 30% L929 cell-conditioned medium as an induction factor.[51] Half of the medium was changed every other day for 5–7 days. The suspended cells were removed, and the adherent BMDMs were digested with trypsin and plated on a six-well plate at a density of 1 × 10^6 cells/well. […]
To measure the levels of CXCL10, IFN-β, IL-1β, and IL-18, mouse serum or cell culture medium was collected and measured by ELISA (NeoBioscience, China) according to the manufacturer’s instructions.
To measure the release of LDH, cell culture medium was collected and measured by CytoTox96@Non-Radio cytotoxicity Assay (Promega, REF#G1781) according to the manufacturer’s instructions.

T1 sequence (Q9ES74 whole entry K130A/L132R/K140A): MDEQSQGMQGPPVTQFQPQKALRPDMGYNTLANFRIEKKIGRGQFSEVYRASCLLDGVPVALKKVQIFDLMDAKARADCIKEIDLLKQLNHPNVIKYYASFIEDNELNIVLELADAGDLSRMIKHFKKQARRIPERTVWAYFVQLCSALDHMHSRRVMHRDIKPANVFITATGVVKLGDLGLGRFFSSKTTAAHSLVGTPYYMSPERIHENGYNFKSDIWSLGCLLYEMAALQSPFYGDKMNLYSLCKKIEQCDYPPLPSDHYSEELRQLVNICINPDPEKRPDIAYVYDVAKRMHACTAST

`CSCC[C@H](NC(=O)[C@H](Cc1ccc(O)cc1)NC(=O)[C@H](CCC(N)=O)NC(=O)[C@H](CS)NC(=O)[C@H](C)NC(=O)[C@H](C)NC(=O)[C@H](Cc1c[nH]cn1)NC(=O)[C@H](CCSC)NC(=O)[C@H](CC(C)C)NC(=O)[C@H](CS)NC(=O)[C@H](CC(N)=O)NC(=O)CNC(=O)[C@H](CC(=O)O)NC(=O)CNC(=O)[C@H](CC(N)=O)NC(=O)[C@@H](NC(=O)[C@H](CCCCN)NC(=O)[C@H](CC(C)C)NC(=O)[C@H](C)NC(=O)[C@@H](NC(=O)[C@H](CC(C)C)NC(=O)[C@@H](N)CCCCN)C(C)C)[C@@H](C)O)C(=O)N[C@@H](Cc1c[nH]c2ccccc12)C(=O)NCC(=O)N[C@H](C(=O)N[C@@H](CCC(N)=O)C(=O)N[C@@H](CC(=O)O)C(=O)N[C@H](C(=O)N[C@@H](CC(=O)O)C(=O)O)[C@@H](C)O)C(C)C` [P-II] (H-KLVALKTNGDGNCLMHAACQYMWGVQDTD-OH; N-terminus and C-terminus assumed): the “affinity of NEK7 for P-II, effect of simultaneous mutation of three residues” value in test [1] is “abrogated the affinity of NEK7 for P-II”. Further, the “affinity for NEK7 (in words)” value in test [2] is “high affinity to NEK7 protein”. In addition, the “binding of NEK7 and P-II, effect of simultaneous mutation of three residues” value in test [3] is “significantly attenuate the binding of NEK7 and P-II”. Also, the “inhibition of ox-DNA-induced pyroptosis” value in test [4] is listed as “significantly alleviates ox-dsDNA-induced pyroptosis; also recorded: inhibiting ox-self-DNA-induced pyroptosis”.
